Results on five compounds are retold here after US20090270447A1, “2-Aryl-and 2-Heteroarylthiazolyl Compounds, Methods for Their Preparation and Use Thereof” (Wyeth, priority 2008, published 2009).

For data set [1], the system named is xenografts of a human breast carcinoma cell line (MDA-MB-361). As to the kind of experiment: In-vivo activity in tumor xenografts. As to conditions: days 1 through 20. How it is done: Selected fused heterobicyclic 2-aryl- or 2-heteroarylthiazolyl compounds of formula I were tested for their activity in a securin parental cell line (HCT116 FB) and a securin knockout (KO) cell line. […] The in-vivo activity of selected fused heterobicyclic 2-arylarylthiazolyl compounds of formula I was studied in cells growing as xenografts in athymic (nude) mice. The effect of Examples 5-7 and 10 was studied in xenografts of a human breast carcinoma cell line (MDA-MB-361).
In-vivo Activity in Tumor Xenografts. The effectiveness of Examples 5-7 versus Vincristine at controlling tumor growth was studied and the results are summarized in Table 2 and FIG. 1. The 2-arylthiazolyl compounds were formulated 0.5% Methocel™ (methylcellulose) and 0.4% Tween 80™ (polysorbate-80 and oleic acid) and administered daily orally (PO), by gavage or intraperiotenially (IP) by syringe. Tumor mass [(length×width^2)/2] was determined every 7 days. Inhibition of tumor growth was calculated relative to conventional (vehicle treated) controls.

Data set [2] relates to securin "knock out" cells F3 (Securin−/−). Briefly: Growth inhibition of securin knock out cells F3 (SRB, 5 days). The data set is classed as cell-based. Conditions: for IC50: 120 h, securin knock out F3 cells, 5 days, SRB; for Selectivity Ratio F3: IC50 HCT116 / IC50 securin KO F3. Here is the method:
(§1) IC50 analysis was performed for selected fused heterobicyclic 2-aryl or 2-heteroarylthiazolyl compounds that were tested on HCT116 cells and Securin “knock out” cell lines.
(§2) Cell Culture—HCT116 and securin “knock out” cells. HCT116 and securin “knock out” cells (D8 and F3) were grown in RPMI+5% fetal bovine serum and gentamycin. They were maintained in a humidified 37° C. incubator with 5% CO2. Since the securin “knock out” cells have active chromosomal instability, cells were used at a low passage number of 2-13 passages. At or before passage 13 a new vial of cells was thawed and used for the screen. Cell seeding—HCT116 cells and securin “knock out” cells were trypsinized and suspenended in RPMI+5% FBS at a density of 27,000 cells/mL. HCT116 and securin “knock out” cells were seeded separately in wells of a 96-well plate (Falcon Cat # 35-3872) at a cell density of 4000 cells per well. Cells were seeded in 150 μL of RPMI media containing 5% FBS and gentamycin. Cell seeding was performed under aseptic conditions. Cells were allowed to attach and grow overnight in a humidified 37° C. incubator.
(§3) Compound Dilution and Dispensation. A series of stock solutions, 10 mg/ml of 2-aryl- or 2-heteroarylthiazolyl compounds to be tested, were brought to room temperature. The compounds were diluted 1:50 in RPMI+5% FBS (Highest concentration 200 μg/mL). The compounds were then serially diluted 1:3 across a deep-well titration plate resulting in final concentrations in the plate of 200, 66.7, 22.2, 7.4, 2.4, 0.8 0.27, 0.091, 0.03, 0.01, and 0.0034 μg/mL with one well left without a compound. 50 μL of this dilution series was added to the 150 μL of cells to result in a final concentration of compound in with the cells of 50, 16.6, 5.5, 1.8, 0.6, 0.2, 0.068, 0.023, 0.0076, 0.0025, and 0.00084 μg/mL. The dilution and addition of compounds to the plates is performed using a Multimek 96 Robot (Beckman Coulter).
(§4) Incubation and analysis. After dosing, the cells in the 96 well plates were returned to the humidified 37° C. incubator. The compounds remained on the cells for 5 days. After 5 days, the cells were fixed to the plates with the addition of 50 μL of 50% (vol/vol) Trichloro Acetic Acid ([…]). The cells were fixed at 4° C. for 1 hour. The plates were washed 5 times in distilled water and allowed to dry. The cells were stained with 0.4% sulforhodamine B (Sigma) in 1% acetic acid. The cells were stained for 15 minutes at room temperature. The plates were then washed 3 times in 1% acetic acid. The plates were dried and the dye was solubilized in 10 mM Tris at pH 8.0. The plates were read on the Absorbence 560 setting on a Victor^2 V Model 1420 Multilabel HTS counter (Perkin Elmer).
(§5) Analysis of Results—IC50 data. Absorbence data was read off of the Victor and was converted to a percentage of the control (untreated) values. IC50 values were graphed and the point at which a 50% inhibition of the control level was determined. […] If the model was not able to determine an IC50, the IC50 was assigned to the lowest concentration that gives a 50% or greater decrease in absorbence compared to control levels. If the calculated IC50 value for a cell line exceeds the top concentration for the assay (typically 50 μg/mL), the assay was scored as >50.
(§6) Selectivity Ratio. The Selectivity Ratio is the ratio of IC50s between the parent cell line and the knock out cell line and is always a positive number and is typically an integer.

Data set [3] has as its system securin "knock out" cells D8 (Securin−/−). Briefly: Growth inhibition of securin knock out cells D8 (SRB, 5 days). Format: cell-based. As to conditions: for IC50: 120 h, securin knock out D8 cells, 5 days, SRB; for Selectivity Ratio D8: IC50 HCT116 / IC50 securin KO D8. How it is done:
as §1, §2, §3, §4, §5, §6

Data set [4] deals with HCT116 cells (Securin+/+, securin parental cell line HCT116 FB). As to the kind of experiment: Growth inhibition of securin parental cells (SRB, 5 days). As to conditions: Homo sapiens, HCT-116, 120 h. Format: cell-based. How it is done:
as §1, §2, §3, §4, §5

`O[C@@H]1CNCc2nc(-c3ccc(N4CCCC4)cc3)sc21` [Example 6, (7R)-2-(4-pyrrolidin-1-yl-phenyl)-4,5,6,7-tetrahydro[1,3]thiazolo[4,5-c]pyridin-7-ol]: in data set [1] (5 mg/kg/dose PO), the “S/T = # of Survivors/# of Treated on Day +21 post tumor staging” value was 9/10, the “% T/C Day 7” value is reported as 88%, the “Relative Tumor Growth Day 7” value is on record as 1.46 and the “% T/C Day 14” value was 74%. In data set [1] (5 mg/kg/dose PO), the “Relative Tumor Growth Day 14” value is listed as 3.72, the “% T/C Day 21” value was 71% and the “Relative Tumor Growth Day 21” value was determined as 6.53. Besides, in data set [1] (10 mg/kg/dose PO), the “% T/C Day 7” value stood at 106%, the “Relative Tumor Growth Day 7” value worked out at 1.76, the “% T/C Day 14” value came to 81% and the “Relative Tumor Growth Day 14” value is reported as 4.06. In data set [1] (10 mg/kg/dose PO), the “% T/C Day 21” value turned out to be 80% and the “Relative Tumor Growth Day 21” value came out at 7.32. In addition, in data set [2], it took 0.429 µM to reach half-maximal inhibition (IC50) and the “Selectivity Ratio F3” value is 34. For the same compound, in data set [3], half-maximal inhibition (IC50) was put at 0.45 µM and the “Selectivity Ratio D8” value was determined as 32. Further, in data set [4], the IC50 was found to be 14.5 µM.

Consider `O[C@H]1CNCc2nc(-c3ccc(N4CCCC4)cc3)sc21` [Example 7, (7S)-2-(4-pyrrolidin-1-yl-phenyl)-4,5,6,7-tetrahydro[1,3]thiazolo[4,5-c]pyridin-7-ol], for which, in data set [1] (5 mg/kg/dose PO), the “S/T = # of Survivors/# of Treated on Day +21 post tumor staging” value is 10/10, the “% T/C Day 7” value was determined as 95%, the “Relative Tumor Growth Day 7” value is given as 1.57 and the “% T/C Day 14” value came to 86%. In data set [1] (5 mg/kg/dose PO), the “Relative Tumor Growth Day 14” value turned out to be 4.30, the “% T/C Day 21” value is 81% and the “Relative Tumor Growth Day 21” value is listed as 7.45. Also, in data set [1] (10 mg/kg/dose PO), the “% T/C Day 7” value was 93%, the “Relative Tumor Growth Day 7” value stood at 1.54, the “% T/C Day 14” value is 113% and the “Relative Tumor Growth Day 14” value is recorded as 5.64. In data set [1] (10 mg/kg/dose PO), the “% T/C Day 21” value came out at 122% and the “Relative Tumor Growth Day 21” value was found to be 11.17. In addition, in data set [2], the 50% inhibitory concentration (IC50) was found to be 9.67 µM and the “Selectivity Ratio F3” value is 4. For the same compound, in data set [3], the IC50 stood at 21.6 µM and the “Selectivity Ratio D8” value is reported as 2. For the same compound, in data set [4], the IC50 was found to be 36.4 µM.

With `COC(=O)c1cc(N(C)C)ccc1-c1nc2c(s1)C(O)CNC2` (stereo not drawn) [Example 9, methyl 5-(dimethylamino)-2-(7-hydroxy-4,5,6,7-tetrahydro[1,3]thiazolo[4,5-c]pyridin-2-yl)benzoate], the IC50 in data set [2] turned out to be 0.67 µM; in data set [3], 0.53 µM; in data set [4], 100 µM. Besides, in data set [2], the “Selectivity Ratio F3” value amounted to 149. Besides, the “Selectivity Ratio D8” value in data set [3] came out at 189.

For the compound `COC(=O)c1cc(N2CCCC2)ccc1-c1nc2c(s1)C(O)CNC2` (stereo not drawn) [Example 13, Methyl 5-(4-pyrrolidin-1-yl)-2-(7-hydroxy-4,5,6,7-tetrahydro[1,3]thiazolo[4,5-c]pyridin-2-yl)benzoate], the figures for the IC50 in data set [2], in data set [3] and in data set [4] were 0.516 µM, 0.342 µM and 59.2 µM, respectively. Moreover, the “Selectivity Ratio F3” value in data set [2] came to 115. Also, the “Selectivity Ratio D8” value in data set [3] is 173.

In the case of `OC1CNCc2nc(-c3ccc(N4CCCC4)cc3)sc21` [Example 5, (7R,7S)-2-(4-pyrrolidin-1-yl-phenyl)-4,5,6,7-tetrahydro[1,3]thiazolo[4,5-c]pyridin-7-ol], in data set [1] (10 mg/kg/dose PO), the “% T/C Day 7” value was 96%, the “Relative Tumor Growth Day 7” value is listed as 1.59, the “% T/C Day 14” value came out at 78% and the “Relative Tumor Growth Day 14” value worked out at 3.92. Also, in data set [1] (10 mg/kg/dose PO), the “% T/C Day 21” value turned out to be 86% and the “Relative Tumor Growth Day 21” value turned out to be 7.86. Moreover, in data set [2], the midpoint of inhibition, the IC50, lay at 0.93 µM and the “Selectivity Ratio F3” value is recorded as 25. In addition, in data set [3], it took 0.68 µM to reach half-maximal inhibition (IC50) and the “Selectivity Ratio D8” value was 34. Also, the IC50 in data set [4] amounted to 22.8 µM.

For orientation: IC50 means the point on the concentration scale where inhibition reaches its midpoint.
